Experimental data published in paper PMC5859730, “Dual targeting of the cancer antioxidant network with 1,4-naphthoquinone fused Gold(I) N-heterocyclic carbene complexes” (Chemical Science, 2017).

Test system: A549 xenografts in zebrafish embryos
Assay: Zebrafish A549 tumor xenograft efficacy
Assay type: in vivo
Conditions: 0.5 μM, 48 to 72 hpf
Method: The anticancer activity of the complex 1 was tested using a qualitative high throughput zebrafish tumor xenograft model (IACUC # I13009).[74] First, zebrafish embryos were divided into 7 groups at an average of 65 embryos per group. Each group was treated with vehicle (DMSO) or complex 1 at variable concentrations to identify the maximum tolerable dose (MTD) (Fig. S29 ^†). […] Therefore, efficacy studies, using zebrafish bearing human tumor xenografts were carried out with complex 1 being administered at the 0.5 μM concentration level.[75]–[77] Briefly, live human lung cancer cells (A549) were labeled with CM-DiI (red) and only live cells were transplanted via injection into the perivitelline space of 30 zebrafish embryos 24 hours post fertilization (hpf).[74],[78],[79] Tumor inoculated zebrafish embryos were allowed to grow for one day till 48 hpf. This allows for establishment of the cancer cells in the host zebrafish embryos. At 48 hpf, the xenograft bearing zebrafish embryos were split into 2 groups (15 embryos per group) and treated with vehicle (DMSO) or complex 1 at 0.5 μM for one additional day (72 hpf), and cancer cell death was observed using acridine orange staining (green). Live zebrafish-A549 tumor xenografts treated with DMSO display features consistent with the presence of tumor cells (red, white arrows in Fig. 10A). […]

## Cc1cc(C)c(-n2c3c(n(-c4c(C)cc(C)cc4C)[c]2=[Au-]=[c]2n(-c4c(C)cc(C)cc4C)c4c(n2-c2c(C)cc(C)cc2C)C(=O)c2ccccc2C4=O)C(=O)c2ccccc2C3=O)c(C)c1.[Cl][Ag-][Cl] [Complex 1, [bis(1,3-dimesityl-4,5-naphthoquino-imidazol-2-ylidene)-gold(I)] [silver(I)dichloride]]
  Tumor cell death in xenografts (acridine orange staining): evidence of apoptosis for the majority of tumor cells
